pEC50: −log10 of the molar value. Like-named read-outs stand apart in the source and are kept apart here.
What was measured:
in vitro = type: cell-based; conditions: dog
Procedure: Method for cytotoxicity study: The cytotoxicity assay and antiviral activity assay of the compounds were performed in parallel, except for the absence of virus, other experimental conditions were consistent with the antiviral activity assay. After 5 days of culture, the cell viability was measured using the cell viability detection kit CCK8. Raw data were used for calculating compound cytotoxicity (CC50) (see Table 1 for results).

[1] = test system: influenza virus A/PR/8/34 (H1N1); experiment: organism not typed; type: cell-based; conditions: 120 h
in vivo = experiment: in vivo; design: species or system SD rats; conditions: SD, rat, iv, 0.25 mg/kg
Procedure: Intravenous injection: about 2 mg of Compound 11-5, Compound 11-6 and Compound 1-77 were accurately weighed out and added with appropriate amount of DMA, followed by vortex to a clean solution. An appropriate volume of 30% Solutol HS-15 aqueous solution and saline were added and vortexed, so that DMA: 30% Solutol HS-15: saline was 20:20:60 (v/v/v). The solution was filtered to give a 0.05 mg·mL^−1 pharmaceutical preparation. SD rats were given a single injection of 0.25 mg·kg^−1 of Compounds 11-5, 11-6 and 1-77 intravenously. 0.20 mL of blood was collected from the jugular vein before administration and 0.083 h, 0.25 h, 0.5 h, 1 h, 2 h, 4 h, 8 h, 12 h and 24 h after administration, and placed in an EDTA-K2 anticoagulation tube. 150 μL of whole blood was accurately pipetted immediately, and added into a test tube to which 450 μL of acetonitrile has been added to precipitate proteins, and the tube was vortexed, and placed on wet ice. It was stored in a −90˜−60° C. refrigerator for biological sample analysis. The concentration of the corresponding compound in the plasma of S-D rats was determined by LC-MS/MS analysis. The corresponding pharmacokinetic parameters were calculated using a non-compartmental model in Pharsight Phoenix 7.0.

[2] = design: species or system SD rats; conditions: SD, rat, in vivo, po, 3 mg/kg
Procedure: Intragastric administration: about 4 mg of Compound III-2 was accurately weighed out and added with appropriate amount of PEG400, followed by vortex to a clean solution. An appropriate volume of 30% Solutol HS-15 aqueous solution and saline were added, and followed by vortex to give a pharmaceutical preparation of a concentration of 0.3 mg·mL^−1, with PEG400: 30% Solutol HS-15: saline=2:2:6 (v/v/v). SD rats were given a single oral administration of 3.0 mg·kg^−1 of Compounds III-2, and the concentration of Compound II-6 in the plasma of S-D rats was determined before administration and 0.25 h, 0.5 h, 1 h, 2 h, 4 h, 8 h, 12 h and 24 h after administration.

[3] = test system: influenza A virus (H1N1, A/WSN/33); experiment: Efficacy on mice, IAV mouse infection model; type: in vivo, Female BALB/c mice; conditions: 15 mpk orally twice a day; for Body weight change / Survival rate: infected mice; for Body weight change: during the experiment; for Survival rate: to the predetermined experimental end point; for Mean difference of virus titer compared with the solvent group / Influenza Virus Titer in lung tissue: mice, 5th day after infection
From the text: Female BALB/c mice were inoculated with influenza A virus (H1N1, A/WSN/33) by intranasal administration to establish an IAV mouse infection model. The vehicle, Compound III-2 (15 mpk) or oseltamivir phosphate (15 mpk) were orally administered twice a day. Animal weight and survival status were monitored daily during the test, and on the 5th day, some animals were killed to take lung tissue for virus titer detection, and the remaining mice were used for survival rate monitoring. The in vivo anti-influenza virus efficacy of the test compound was determined by virus titer in lung tissue, mouse body weight change and survival rate.

[4] = MDCK cells, A/PR/8/34 (H1N1), 5 days, CCK8, read-out: EC50

SMILES | CC50 at 5 days (in vitro) | pEC50 [1, 4] | also measured
O=C1C2N(CC3CCCN13)C(=O)c1c(O)c(=O)ccn1N2[C@@H]1c2ccccc2SCc2c1ccc(F)c2F (stereo partly drawn) [II-101] | > 1000 nM | 9.03 | 
COCC1COC[C@@H]2N1C(=O)c1c(O)c(=O)ccn1N2[C@@H]1c2ccccc2SCc2c1ccc(F)c2F (stereo partly drawn) [II-8] | > 1000 nM | 9.33 | 
O=C1c2c(O)c(=O)ccn2N([C@@H]2c3ccccc3SCc3cccc(F)c32)CN1C1CC2(CCC2)C1 [Compound I-21] | > 1000 nM | 9.22 | 
O=C1c2c(O)c(=O)ccn2N([C@H]2c3ccccc3CSc3ccccc32)[C@@H]2COCC3(CC3)N12 [II-1] | > 1000 nM |  | pEC50 ([1]; MDCK): 9.35
O=C1c2c(O)c(=O)ccn2N([C@@H]2c3ccccc3SCc3cccc(F)c32)CN1C12CC(C1)C2 [Compound I-85] | > 1000 nM | 9.74 | 
O=C1c2c(O)c(=O)ccn2N([C@H]2c3ccccc3CSc3ccccc32)CN1C12CC(C1)C2 [Compound I-69] | > 1000 nM | 9.46 | 
O=C1c2c(O)c(=O)ccn2N([C@@H]2c3ccccc3SCc3cccc(F)c32)[C@@H]2COC3(CC3)CN12 [II-18] | > 1000 nM | 9.55 | 
O=C1c2c(O)c(=O)ccn2N([C@@H]2c3ccccc3SCc3c2ccc(F)c3F)[C@@H]2COC3(COC3)CN12 [II-7] | > 1000 nM | 9.03 | 
O=C(O)[C@H]1C2CCC(CC2)[C@@H]1Nc1nc(-c2c[nH]c3ncc(F)cc23)ncc1F [VX-787, reference compound] | > 100 nM | 8.85 | 
O=C1c2c(O)c(=O)ccn2N([C@@H]2c3ccccc3SCc3c2ccc(F)c3F)[C@@H]2COCC3(CC3)N12 [II-5] | > 1000 nM |  | AUC(0-t) (in vivo): 187 ng·h/mL; Vd (in vivo): 3.69 L/kg; clearance (in vivo): 20.9 mL/min/kg; half-life (in vivo): 2.49 h; pEC50 ([1]; MDCK): 9.66
O=C1c2c(O)c(=O)ccn2N([C@@H]2c3ccccc3SCc3c2ccc(F)c3F)CN1CCSC1CC1 [Compound I-8] | > 1000 nM | 9.12 | 
O=C1c2c(O)c(=O)ccn2N([C@@H]2c3ccccc3SCc3c(F)cccc32)[C@@H]2COCC3(CC3)N12 [II-9] | > 1000 nM |  | pEC50 ([1]; MDCK): 9.55
C=C1CCN2C(=O)c3c(O)c(=O)ccn3N([C@@H]3c4ccccc4SCc4c3ccc(F)c4F)[C@@H]2C1 [II-65] | > 1000 nM | 9.35 | 
O=C1c2c(O)c(=O)ccn2N([C@@H]2c3ccccc3SCc3cccc(F)c32)[C@@H]2COCC3(CC3)N12 [II-17] | > 1000 nM |  | pEC50 ([1]; MDCK): 9.59
O=C1c2c(O)c(=O)ccn2N([C@@H]2c3ccccc3SCc3c2ccc(F)c3F)CN1C1C2CC1C2F (stereo partly drawn) [Compound I-66] | > 1000 nM | 9.24 | 
O=C1c2c(O)c(=O)ccn2N([C@@H]2c3ccccc3SCc3c2ccc(F)c3F)[C@@H]2CC=CCN12 [II-66] | > 1000 nM | 9.74 | 
O=C1c2c(O)c(=O)ccn2N([C@H]2c3ccc(F)cc3CSc3ccccc32)CN1C12CC(C1)C2 [Compound I-83] | > 1000 nM | 9.68 | 
O=C1c2c(O)c(=O)ccn2N([C@H]2c3ccc(F)cc3CSc3ccccc32)[C@@H]2COC3(CC3)CN12 [II-14] | > 1000 nM | 9.51 | 
O=C1c2c(O)c(=O)ccn2N([C@@H]2c3ccccc3SCc3c2ccc(F)c3F)CN1C1C2CC1C2 (stereo partly drawn) [Compound I-65] | > 1000 nM | 9.43 | 

SMILES | CC50 at 5 days (in vitro) | pEC50 [1, 4] | also measured
O=C1c2c(O)c(=O)ccn2N([C@@H]2c3ccccc3SCc3c2ccc(F)c3F)CN1CCOC1CC1 [Compound I-7] | > 1000 nM | 9.08 | 
O=C1c2c(O)c(=O)ccn2N([C@H]2c3ccc(F)cc3CSc3ccccc32)[C@@H]2COCC3(CC3)N12 [II-13] | > 1000 nM |  | pEC50 ([1]; MDCK): 9.42
O=C1c2c(O)c(=O)ccn2N([C@H]2c3ccccc3CSc3ccccc32)CN1C1CC2(COC2)C1 [Compound I-10] | > 1000 nM | 9.15 | 
O=C1c2c(O)c(=O)ccn2N([C@@H]2c3ccccc3SCc3c(F)cccc32)[C@@H]2COC3(CC3)CN12 [II-10] | > 1000 nM | 9.62 | 
O=C1c2c(O)c(=O)ccn2N([C@H]2c3ccccc3CSc3ccccc32)CN1C1CC2(CC2)C1 [Compound I-9] | > 1000 nM | 9.40 | 
O=C1c2c(O)c(=O)ccn2N([C@H]2c3ccccc3CSc3ccccc32)CN1C1CC2(CCC2)C1 [Compound I-1] | > 1000 nM | 9.30 | 
O=C1c2c(O)c(=O)ccn2N([C@@H]2c3ccccc3SCc3c2ccc(F)c3F)CN1C1CC2(CC2)C1 [Compound I-14] | > 1000 nM | 9.49 | 
COC(=O)OCOc1c2n(ccc1=O)N([C@@H]1c3ccccc3SCc3c1ccc(F)c3F)[C@@H]1COC3(CC3)CN1C2=O [III-2] |  |  | AUC(0-t) [2]: 1377 ng·h/mL; Cmax [2]: 253 ng/mL; F [2]: 47.2%; T1/2 [2]: 3.32 h; Tmax [2]: 1.67 h; Body weight change [3]: remained stable; Survival rate [3]: 100%; Mean difference of virus titer compared with the solvent group [3]: 3.92 Log 10 (number of plaques per gram of lung tissue); Influenza Virus Titer in lung tissue ([3]; 15 mg/kg): 3.28 Log10 (plaques number/gram of; Influenza Virus Titer in lung tissue ([3]; listed as Compound III-2, 15 mg/kg): 3.28 ± 0.2813 Log10 (plaques number/gram of
O=C1c2c(O)c(=O)ccn2N([C@@H]2c3ccccc3SCc3c2ccc(F)c3F)[C@@H]2CC(OC3CC3)CCN12 (stereo partly drawn) [II-34] | > 1000 nM | 9.41 | 
O=C1c2c(O)c(=O)ccn2N([C@@H]2c3ccccc3SCc3c2ccc(F)c3F)[C@@H]2COC3(CC3)CN12 [II-6] | > 1000 nM | 9.59 | AUC(0-t) (in vivo): 276 ng·h/mL; Vd (in vivo): 3.12 L/kg; clearance (in vivo): 13.6 mL/min/kg; half-life (in vivo): 2.97 h
O=C1c2c(O)c(=O)ccn2N([C@H]2c3ccccc3CSc3ccccc32)[C@@H]2COC3(CC3)CN12 [II-2] | > 1000 nM | 9.29 | 
COCC1CN2C(=O)c3c(O)c(=O)ccn3N([C@@H]3c4ccccc4SCc4c3ccc(F)c4F)[C@@H]2CO1 (stereo partly drawn) [II-29] | > 1000 nM | 9.24 | 
O=C1c2c(O)c(=O)ccn2N([C@@H]2c3ccccc3SCc3c2ccc(F)c3F)CN1C1CC2(CCC2)C1 [Compound I-5] | > 1000 nM | 9.36 | 
O=C1c2c(O)c(=O)ccn2N([C@@H]2c3ccccc3SCc3c2ccc(F)c3F)[C@@H]2C/C(=C/F)CCN12 [II-67] | > 1000 nM | 9.32 | 
CCOC(=O)C1=C[C@@H](OC(CC)CC)[C@H](NC(C)=O)[C@@H](N)C1 [Oseltamivir phosphate, oseltamivir phosphate, reference compound] |  |  | Body weight change [3]: remained stable; Survival rate [3]: 100%; Mean difference of virus titer compared with the solvent group [3]: 3.46 Log 10 (number of plaques per gram of lung tissue); Influenza Virus Titer in lung tissue ([3]; 15 mg/kg): 3.74 ± 0.5205 Log10 (plaques number/gram of; Influenza Virus Titer in lung tissue ([3]; listed as oseltamivir phosphate, 15 mg/kg): 3.74 Log10 (plaques number/gram of
O=C1c2c(O)c(=O)ccn2N([C@@H]2c3ccccc3SCc3c2ccc(F)c3F)CN1C12CC(C1)C2 [Compound I-77] | > 1000 nM | 9.80 | AUC(0-t) (in vivo): 307 ng·h/mL; Vd (in vivo): 2.77 L/kg; clearance (in vivo): 13 mL/min/kg; half-life (in vivo): 2.96 h
O=C1c2c(O)c(=O)ccn2N([C@@H]2c3ccccc3SCc3c(F)cccc32)CN1C12CC(C1)C2 [Compound I-81] | > 1000 nM | 9.72 | 
O=C1c2c(O)c(=O)ccn2N([C@@H]2c3ccccc3SCc3cccc(Cl)c32)[C@@H]2COC3(CC3)CN12 [II-22] | > 1000 nM | 9.44 | 
O=C1c2c(O)c(=O)ccn2N([C@@H]2c3ccccc3SCc3cccc(Cl)c32)CN1C12CC(C1)C2 [Compound I-89] | > 1000 nM | 9.77 | 

From patent publication US11247993B2, “Pyridone derivative, composition and use as antiviral drug thereof” (priority 2018, dated 2022)
